US7884136B2, “Modified-release formulations of a bupropion salt” (Biovail Laboratories International S.R.L., priority 2005, dated 2011)

Assay: Shelf life stability program of bupropion HBr, 25° C./60% RH, 3 and 6 months, HPLC
Assay type: physicochemical
Conditions: 25° C./RH 60%; for Chromatographic purity B) (HPLC): 4) 2-N-(tert-Butyl)-aminopropiophenone / Chromatographic purity B) (HPLC): 5) single unknown impurity (each): LOQ 0.02%, LOD 0.002%; for Chromatographic purity A) (HPLC): 1) 3′-Chloropropiophenone / Chromatographic purity A) (HPLC): 3) 3′-Chlorobenzoic acid / Chromatographic purity A) (HPLC): 2) 3′-Chloro-2-bromopropiophenone: LOQ 0.05%; for Chromatographic purity A) (HPLC): 1) 3′-Chloropropiophenone / Chromatographic purity A) (HPLC): 3) 3′-Chlorobenzoic acid: LOD 0.01%; for Chromatographic purity A) (HPLC): 2) 3′-Chloro-2-bromopropiophenone: LOD 0.04%; for Description: specification white or almost white crystalline powder; for Assay (HPLC): on d.b.; for Chromatographic purity B) (HPLC): 6) total unknown impurities: sum of all impurity peak areas
Procedure: The stability of bupropion HBr was studied over a longer term under conditions meant to approximate standard storage or shelf conditions. Samples were prepared in closed containers and subjected to long-term storage at 25° C.+2° C. and 60%+5% RH in a stability chamber. The samples were analyzed by HPLC prior to being placed in the stability chamber (time 0) and after 3 months and 6 months. The amounts of the main degradation products present at time 0 were compared with the amounts present at 3 months and 6 months. As shown in Table 77-79 three different batches of bupropion HBr were tested. As in Example 10 each sample was tested under two HPLC assay conditions to identify 6 impurities or groups of impurities as described in Example 10.

## Br.CC(NC(C)(C)C)C(=O)c1cccc(Cl)c1 (stereo not shown) [Bupropion•HBr D00894]
3 months
  Chromatographic purity (HPLC: A + B) Total impurities: 0.1%
  Water content (K.F.): 0.05%
  Chromatographic purity B) (HPLC): 4) 2-N-(tert-Butyl)-aminopropiophenone: 4) 0.03%
  Chromatographic purity B) (HPLC): 5) single unknown impurity (each): 5) 0.04%
  Chromatographic purity A) (HPLC): 1) 3′-Chloropropiophenone: 1) n.q.
  Chromatographic purity A) (HPLC): 3) 3′-Chlorobenzoic acid: 3) n.q.
  Chromatographic purity A) (HPLC): 2) 3′-Chloro-2-bromopropiophenone: 2) n.d.
  Description: conform
6 months
  Chromatographic purity (HPLC: A + B) Total impurities: 0.1%
  Water content (K.F.): 0.06%
  Chromatographic purity B) (HPLC): 4) 2-N-(tert-Butyl)-aminopropiophenone: 4) 0.05%
  Chromatographic purity B) (HPLC): 5) single unknown impurity (each): 5) n.q.
  Chromatographic purity A) (HPLC): 1) 3′-Chloropropiophenone: 1) 0.05%
  Chromatographic purity A) (HPLC): 3) 3′-Chlorobenzoic acid: 3) n.q.
  Chromatographic purity A) (HPLC): 2) 3′-Chloro-2-bromopropiophenone: 2) n.d.
  Assay (HPLC): 100.2%
  Description: conform
9 months
  Chromatographic purity (HPLC: A + B) Total impurities: n.q.
  Water content (K.F.): 0.05%
  Chromatographic purity B) (HPLC): 4) 2-N-(tert-Butyl)-aminopropiophenone: 4) n.d.
  Chromatographic purity B) (HPLC): 5) single unknown impurity (each): 5) n.q.
  Chromatographic purity A) (HPLC): 1) 3′-Chloropropiophenone: 1) n.q.
  Chromatographic purity A) (HPLC): 3) 3′-Chlorobenzoic acid: 3) n.q.
  Chromatographic purity A) (HPLC): 2) 3′-Chloro-2-bromopropiophenone: 2) n.d.
  Description: conform
  Chromatographic purity B) (HPLC): 6) total unknown impurities: 6) n.q.
12 months
  Chromatographic purity (HPLC: A + B) Total impurities: 0.2%
  Water content (K.F.): 0.05%
  Chromatographic purity B) (HPLC): 4) 2-N-(tert-Butyl)-aminopropiophenone: 4) 0.05%
  Chromatographic purity B) (HPLC): 5) single unknown impurity (each): 5) 0.05%
  Chromatographic purity A) (HPLC): 1) 3′-Chloropropiophenone: 1) n.d.
  Chromatographic purity A) (HPLC): 3) 3′-Chlorobenzoic acid: 3) 0.05%
  Chromatographic purity A) (HPLC): 2) 3′-Chloro-2-bromopropiophenone: 2) n.d.
  Assay (HPLC): 99.6%
  Description: conform
  Chromatographic purity B) (HPLC): 6) total unknown impurities: 6) 0.07%
Time 0
  Chromatographic purity (HPLC: A + B) Total impurities: 0.1%
  Water content (K.F.): 0.05%
  Chromatographic purity B) (HPLC): 4) 2-N-(tert-Butyl)-aminopropiophenone: 4) 0.04%
  Chromatographic purity B) (HPLC): 5) single unknown impurity (each): 5) 0.04%
  Chromatographic purity A) (HPLC): 1) 3′-Chloropropiophenone: 1) n.d.
  Chromatographic purity A) (HPLC): 3) 3′-Chlorobenzoic acid: 3) n.q.
  Chromatographic purity A) (HPLC): 2) 3′-Chloro-2-bromopropiophenone: 2) n.d.
  Assay (HPLC): 99.6%
  Description: conform

## Br.CC(NC(C)(C)C)C(=O)c1cccc(Cl)c1 (stereo not shown) [Bupropion•HBr D00895]
3 months
  Chromatographic purity (HPLC: A + B) Total impurities: 0.1%
  Water content (K.F.): 0.04%
  Chromatographic purity B) (HPLC): 4) 2-N-(tert-Butyl)-aminopropiophenone: 4) 0.03%
  Chromatographic purity B) (HPLC): 5) single unknown impurity (each): 5) 0.04%
  Chromatographic purity A) (HPLC): 1) 3′-Chloropropiophenone: 1) n.q.
  Chromatographic purity A) (HPLC): 3) 3′-Chlorobenzoic acid: 3) n.q.
  Chromatographic purity A) (HPLC): 2) 3′-Chloro-2-bromopropiophenone: 2) n.d.
  Description: conform
6 months
  Chromatographic purity (HPLC: A + B) Total impurities: 0.1%
  Water content (K.F.): 0.05%
  Chromatographic purity B) (HPLC): 4) 2-N-(tert-Butyl)-aminopropiophenone: 4) 0.05%
  Chromatographic purity B) (HPLC): 5) single unknown impurity (each): 5) n.q.
  Chromatographic purity A) (HPLC): 1) 3′-Chloropropiophenone: 1) 0.05%
  Chromatographic purity A) (HPLC): 3) 3′-Chlorobenzoic acid: 3) n.q.
  Chromatographic purity A) (HPLC): 2) 3′-Chloro-2-bromopropiophenone: 2) n.d.
  Assay (HPLC): 100.1%
  Description: conform
  Chromatographic purity B) (HPLC): 6) total unknown impurities: 6) 0.02%
9 months
  Chromatographic purity (HPLC: A + B) Total impurities: n.q.
  Water content (K.F.): 0.05%
  Chromatographic purity B) (HPLC): 4) 2-N-(tert-Butyl)-aminopropiophenone: 4) n.d.
  Chromatographic purity B) (HPLC): 5) single unknown impurity (each): 5) n.q.
  Chromatographic purity A) (HPLC): 1) 3′-Chloropropiophenone: 1) n.q.
  Chromatographic purity A) (HPLC): 3) 3′-Chlorobenzoic acid: 3) n.q.
  Chromatographic purity A) (HPLC): 2) 3′-Chloro-2-bromopropiophenone: 2) n.d.
  Description: conform
  Chromatographic purity B) (HPLC): 6) total unknown impurities: 6) n.q.
12 months
  Chromatographic purity (HPLC: A + B) Total impurities: 0.2%
  Water content (K.F.): 0.04%
  Chromatographic purity B) (HPLC): 4) 2-N-(tert-Butyl)-aminopropiophenone: 4) 0.05%
  Chromatographic purity B) (HPLC): 5) single unknown impurity (each): 5) 0.07%
  Chromatographic purity A) (HPLC): 1) 3′-Chloropropiophenone: 1) n.d.
  Chromatographic purity A) (HPLC): 3) 3′-Chlorobenzoic acid: 3) 0.05%
  Chromatographic purity A) (HPLC): 2) 3′-Chloro-2-bromopropiophenone: 2) n.d.
  Description: conform
  Chromatographic purity B) (HPLC): 6) total unknown impurities: 6) 0.07%
Time 0
  Chromatographic purity (HPLC: A + B) Total impurities: 0.1%
  Water content (K.F.): 0.04%
  Chromatographic purity B) (HPLC): 4) 2-N-(tert-Butyl)-aminopropiophenone: 4) 0.04%
  Chromatographic purity B) (HPLC): 5) single unknown impurity (each): 5) 0.04%
  Chromatographic purity A) (HPLC): 1) 3′-Chloropropiophenone: 1) n.d.
  Chromatographic purity A) (HPLC): 3) 3′-Chlorobenzoic acid: 3) n.q.
  Chromatographic purity A) (HPLC): 2) 3′-Chloro-2-bromopropiophenone: 2) n.d.
  Assay (HPLC): 99.2%
  Description: conform
  Chromatographic purity B) (HPLC): 6) total unknown impurities: 6) 0.04%

## Br.CC(NC(C)(C)C)C(=O)c1cccc(Cl)c1 (stereo not shown) [Bupropion•HBr D00896]
3 months
  Chromatographic purity (HPLC: A + B) Total impurities: 0.1%
  Water content (K.F.): 0.04%
  Chromatographic purity B) (HPLC): 4) 2-N-(tert-Butyl)-aminopropiophenone: 4) 0.03%
  Chromatographic purity B) (HPLC): 5) single unknown impurity (each): 5) 0.04%
  Chromatographic purity A) (HPLC): 1) 3′-Chloropropiophenone: 1) n.q.
  Chromatographic purity A) (HPLC): 3) 3′-Chlorobenzoic acid: 3) n.q.
  Chromatographic purity A) (HPLC): 2) 3′-Chloro-2-bromopropiophenone: 2) n.d.
  Description: conform
  Chromatographic purity B) (HPLC): 6) total unknown impurities: 6) 0.05%
6 months
  Chromatographic purity (HPLC: A + B) Total impurities: 0.1%
  Water content (K.F.): 0.04%
  Chromatographic purity B) (HPLC): 4) 2-N-(tert-Butyl)-aminopropiophenone: 4) 0.04%
  Chromatographic purity B) (HPLC): 5) single unknown impurity (each): 5) n.q.
  Chromatographic purity A) (HPLC): 1) 3′-Chloropropiophenone: 1) 0.05%
  Chromatographic purity A) (HPLC): 3) 3′-Chlorobenzoic acid: 3) n.q.
  Chromatographic purity A) (HPLC): 2) 3′-Chloro-2-bromopropiophenone: 2) n.d.
  Assay (HPLC): 100.5%
  Description: conform
  Chromatographic purity B) (HPLC): 6) total unknown impurities: 6) n.q.
9 months
  Chromatographic purity (HPLC: A + B) Total impurities: n.q.
  Water content (K.F.): 0.04%
  Chromatographic purity B) (HPLC): 4) 2-N-(tert-Butyl)-aminopropiophenone: 4) n.d.
  Chromatographic purity B) (HPLC): 5) single unknown impurity (each): 5) n.q.
  Chromatographic purity A) (HPLC): 1) 3′-Chloropropiophenone: 1) n.q.
  Chromatographic purity A) (HPLC): 3) 3′-Chlorobenzoic acid: 3) n.q.
  Chromatographic purity A) (HPLC): 2) 3′-Chloro-2-bromopropiophenone: 2) n.d.
  Description: conform
  Chromatographic purity B) (HPLC): 6) total unknown impurities: 6) n.q.
12 months
  Chromatographic purity (HPLC: A + B) Total impurities: 0.1%
  Water content (K.F.): 0.03%
  Chromatographic purity B) (HPLC): 4) 2-N-(tert-Butyl)-aminopropiophenone: 4) 0.05%
  Chromatographic purity B) (HPLC): 5) single unknown impurity (each): 5) 0.07%
  Chromatographic purity A) (HPLC): 1) 3′-Chloropropiophenone: 1) n.d.
  Chromatographic purity A) (HPLC): 3) 3′-Chlorobenzoic acid: 3) n.q.
  Chromatographic purity A) (HPLC): 2) 3′-Chloro-2-bromopropiophenone: 2) n.d.
  Assay (HPLC): 100.3%
  Description: conform
  Chromatographic purity B) (HPLC): 6) total unknown impurities: 6) 0.07%
Time 0
  Chromatographic purity (HPLC: A + B) Total impurities: 0.1%
  Water content (K.F.): 0.06%
  Chromatographic purity B) (HPLC): 4) 2-N-(tert-Butyl)-aminopropiophenone: 4) 0.04%
  Chromatographic purity B) (HPLC): 5) single unknown impurity (each): 5) 0.05%
  Chromatographic purity A) (HPLC): 1) 3′-Chloropropiophenone: 1) n.d.
  Chromatographic purity A) (HPLC): 3) 3′-Chlorobenzoic acid: 3) n.q.
  Chromatographic purity A) (HPLC): 2) 3′-Chloro-2-bromopropiophenone: 2) n.d.
  Assay (HPLC): 99.3%
  Description: conform
  Chromatographic purity B) (HPLC): 6) total unknown impurities: 6) 0.05%
